Active and inactive are the calls of the source. The rule behind the calls is not given here.
Experiments:
[1] = Half-life in rat liver microsomes pre-incubated for 15 mins followed by addition of NADPH regenerating system by LC-MS analysis; format: ADME, Microsome
[2] = test system: A-375; experiment: Antitumor activity against human A375 cells xenografted in nude mouse assessed as tumor growth inhibition at 30 mg/kg, ip administered once daily for 14 days and measured after 20 days by caliper method relative to control; format: functional; conditions: A-375, ip, read-out: TGI
[3] = test system: B16-F10; experiment: Antimetastatic activity against mouse B16F10 cells xenografted in C57BL/6 mouse assessed as reduction in lung metastasis at 30 mg/kg, ip administered once daily for 2 weeks with 2 days rest after day 5 and measured after 15 days relative to control; format: functional; set-up: scale not given: the % may be the effect or the level left
[4] = Acute toxicity in C57BL/6 mouse xenografted with mouse B16F10 cells assessed as injury to liver at 30 mg/kg, ip administered once daily for 2 weeks with 2 days rest after day 5 and measured after 15 days by hematoxylin and eosin staining-based assay; format: organism-based; conditions: in vivo, 360 h
[5] = Acute toxicity in nude mouse xenografted with human A375 cells assessed as injury to heart at 15 mg/kg, ip administered once daily for 14 days by hematoxylin and eosin staining-based assay; format: organism-based; conditions: in vivo, 336 h
[6] = test system: PC-3; experiment: Antiproliferative activity against human PC3 cells; format: functional, cell-based
[7] = Toxicity in nude mouse xenografted with human PC-3/TxR cells assessed as effect on body weight at 30 mg/kg administered every other day for 3 weeks; conditions: in vivo, 504 h
[8] = Acute toxicity in nude mouse xenografted with human A375 cells assessed as injury to lung at 30 mg/kg, ip administered once daily for 14 days by hematoxylin and eosin staining-based assay; format: organism-based; conditions: in vivo, 336 h
[9] = Acute toxicity in nude mouse xenografted with human A375 cells assessed as injury to heart at 30 mg/kg, ip administered once daily for 14 days by hematoxylin and eosin staining-based assay; format: organism-based; conditions: in vivo, 336 h
[10] = Antitumor activity against human PC3-TxR cells xenografted in nude mouse assessed as tumor growth inhibition at 30 mg/kg administered every other day for 3 weeks relative to control; format: functional; conditions: 504 h, read-out: TGI
[11] = test system: A-375; experiment: Antitumor activity against human A375 cells xenografted in nude mouse assessed as reduction in tumor weight at 30 mg/kg, ip administered once daily for 14 days relative to control; format: functional; set-up: scale not given: the % may be the effect or the level left
[12] = Acute toxicity in nude mouse xenografted with human A375 cells assessed as injury to kidney at 15 mg/kg, ip administered once daily for 14 days by hematoxylin and eosin staining-based assay; format: organism-based; conditions: in vivo, 336 h
[13] = Acute toxicity in C57BL/6 mouse xenografted with mouse B16F10 cells assessed as injury to heart at 30 mg/kg, ip administered once daily for 2 weeks with 2 days rest after day 5 and measured after 15 days by hematoxylin and eosin staining-based assay; format: organism-based; conditions: in vivo, 360 h
[14] = Toxicity in ip dosed ICR mouse assessed as maximum tolerated dose; format: organism-based; conditions: in vivo
[15] = Half-life in human liver microsomes in presence of NADPH regenerating system; format: ADME, Microsome
[16] = Intrinsic clearance in human liver microsomes in presence of NADPH regenerating system; format: ADME, Microsome; conditions: read-out: CLH
[17] = Acute toxicity in nude mouse xenografted with human A375 cells assessed as injury to kidney at 30 mg/kg, ip administered once daily for 14 days by hematoxylin and eosin staining-based assay; format: organism-based; conditions: in vivo, 336 h
[18] = test system: A-375; experiment: Antitumor activity against human A375 cells xenografted in nude mouse assessed as reduction in tumor weight at 15 mg/kg, ip administered once daily for 14 days relative to control; format: functional; set-up: scale not given: the % may be the effect or the level left
[19] = Antiproliferative activity against human PC3-TxR cells; format: functional, cell-based
[20] = Acute toxicity in C57BL/6 mouse xenografted with mouse B16F10 cells assessed as injury to kidney at 30 mg/kg, ip administered once daily for 2 weeks with 2 days rest after day 5 and measured after 15 days by hematoxylin and eosin staining-based assay; format: organism-based; conditions: in vivo, 360 h
[21] = test system: WM164; experiment: Antiproliferative activity against human WM164 cells after 72 hrs by MTT assay; format: functional, cell-based; conditions: WM164, 72 h
[22] = test system: A-375; experiment: Antimigratory activity in human A375 cells assessed as wound closure at 5 nM after 22 hrs by scratch migration assay (reference value: 60.7 +/- 3.5%); format: functional
[23] = test system: RPMI-7951; experiment: Antimigratory activity in human RPMI7951 cells assessed as wound closure at 25 nM after 18 hrs by scratch migration assay (reference value: 71.8 +/- 1.8%); format: functional
[24] = Resistance index, ratio of IC50 for human DU145-TxR cells to IC50 for human DU145 cells; format: functional
[25] = test system: A-375; experiment: Antimigratory activity in human A375 cells assessed as wound closure at 25 nM after 22 hrs by scratch migration assay (reference value: 60.7 +/- 3.5%); format: functional
[26] = Acute toxicity in nude mouse xenografted with human A375 cells assessed as injury to lung at 15 mg/kg, ip administered once daily for 14 days by hematoxylin and eosin staining-based assay; format: organism-based; conditions: in vivo, 336 h
[27] = test system: A-375; experiment: Antiproliferative activity against human A375 cells after 72 hrs by MTT assay; format: functional, cell-based; conditions: A-375, 72 h, read-out: IC50
[28] = Acute toxicity in nude mouse xenografted with human A375 cells assessed as injury to liver at 15 mg/kg, ip administered once daily for 14 days by hematoxylin and eosin staining-based assay; format: organism-based; conditions: in vivo, 336 h
[29] = test system: A-375; experiment: Antitumor activity against human A375 cells xenografted in nude mouse assessed as tumor growth inhibition at 15 mg/kg, ip administered once daily for 14 days and measured after 20 days by caliper method relative to control; format: functional; conditions: A-375, ip, read-out: TGI
[30] = test system: DU-145; experiment: Antiproliferative activity against human DU145 cells; format: functional, cell-based
[31] = Antiproliferative activity against human DU145-TxR cells; format: functional, cell-based
[32] = biological target: Tubulin (Bos taurus) (UniProt Q6B856+Q862L2+Q862F3); experiment: Inhibition of bovine brain tubulin polymerization at 10 uM measured at time interval of 1 mins for 20 mins by spectrophotometric analysis
[33] = Intrinsic clearance in rat liver microsomes pre-incubated for 15 mins followed by addition of NADPH regenerating system by LC-MS analysis; format: ADME, Microsome; conditions: read-out: CLH
[34] = Acute toxicity in nude mouse xenografted with human A375 cells assessed as injury to liver at 30 mg/kg, ip administered once daily for 14 days by hematoxylin and eosin staining-based assay; format: organism-based; conditions: in vivo, 336 h
[35] = test system: A-375; experiment: Inhibition of anchorage-dependent colony formation in human A375 cells assessed as decrease in colony number at 5 nM after 12 days by crystal violet-staining based assay relative to control; format: functional; conditions: A-375, 288 h
[36] = biological target: 5-hydroxytryptamine receptor 2B (Homo sapiens, UniProt P41595); experiment: Antagonist activity at human HTR2B at 1 uM
Sequence of 5-hydroxytryptamine receptor 2B (P41595 whole entry): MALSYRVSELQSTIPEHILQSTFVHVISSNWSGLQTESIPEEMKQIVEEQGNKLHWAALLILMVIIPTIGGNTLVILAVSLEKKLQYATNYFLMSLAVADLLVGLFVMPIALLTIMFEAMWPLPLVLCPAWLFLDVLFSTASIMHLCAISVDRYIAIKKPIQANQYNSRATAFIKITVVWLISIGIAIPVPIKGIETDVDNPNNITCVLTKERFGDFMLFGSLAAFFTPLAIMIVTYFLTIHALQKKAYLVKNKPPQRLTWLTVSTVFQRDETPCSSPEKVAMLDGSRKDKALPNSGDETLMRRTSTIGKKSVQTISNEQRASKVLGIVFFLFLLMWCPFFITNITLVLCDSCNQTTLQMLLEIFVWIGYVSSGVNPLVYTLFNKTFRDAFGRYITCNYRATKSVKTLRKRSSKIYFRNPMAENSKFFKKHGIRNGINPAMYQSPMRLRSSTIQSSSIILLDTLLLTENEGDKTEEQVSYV

[37] = test system: M14; experiment: Antiproliferative activity against human M14 cells after 72 hrs by MTT assay; format: functional, cell-based; conditions: M14, 72 h
[38] = Resistance index, ratio of IC50 for human PC3-TxR cells to IC50 for human PC3 cells; format: functional
[39] = biological target: T1, Tubulin (Homo sapiens) (UniProt P68371+Q9H4B7+P0DPH7+P68366+Q13509+Q71U36+P04350+Q3ZCM7+P07437+P68363+Q9BQE3+Q6PEY2+Q13885+Q9BVA1+Q9BUF5); experiment: Disruption of microtubule network in human WM164 cells assessed as microtubule disassembly at 100 nM after 18 hrs by DAPI staining based fluorescence confocal microscopic method; format: cell-based
[40] = Acute toxicity in nude mouse xenografted with human A375 cells assessed as injury to spleen at 15 mg/kg, ip administered once daily for 14 days by hematoxylin and eosin staining-based assay; format: organism-based; conditions: in vivo, 336 h
[41] = biological target: T1, Tubulin (Homo sapiens); experiment: Disruption of microtubule network in human WM164 cells assessed as microtubule fragmentation at 100 nM after 18 hrs by DAPI staining based fluorescence confocal microscopic method; format: cell-based
[42] = Half-life in CD-1 mouse liver microsomes in presence of NADPH regenerating system measured up to 4 hrs by UPLC-MS analysis; format: ADME, Microsome
[43] = Acute toxicity in C57BL/6 mouse xenografted with mouse B16F10 cells assessed as injury to lung at 30 mg/kg, ip administered once daily for 2 weeks with 2 days rest after day 5 and measured after 15 days by hematoxylin and eosin staining-based assay; format: organism-based; conditions: in vivo, 360 h
[44] = Antitumor activity against human PC3-TxR cells xenografted in nude mouse assessed as reduction in tumor weight at 30 mg/kg administered every other day for 3 weeks relative to control; format: functional; set-up: scale not given: the % may be the effect or the level left
[45] = Intrinsic clearance in CD-1 mouse liver microsomes in presence of NADPH regenerating system measured up to 4 hrs by UPLC-MS analysis; format: ADME, Microsome; conditions: read-out: CLH
[46] = biological target: Sodium-dependent noradrenaline transporter (Homo sapiens, UniProt P23975); experiment: Antagonist activity at human norepinephrine transporter at 1 uM; format: ADME
Sequence of Sodium-dependent noradrenaline transporter (P23975 whole entry): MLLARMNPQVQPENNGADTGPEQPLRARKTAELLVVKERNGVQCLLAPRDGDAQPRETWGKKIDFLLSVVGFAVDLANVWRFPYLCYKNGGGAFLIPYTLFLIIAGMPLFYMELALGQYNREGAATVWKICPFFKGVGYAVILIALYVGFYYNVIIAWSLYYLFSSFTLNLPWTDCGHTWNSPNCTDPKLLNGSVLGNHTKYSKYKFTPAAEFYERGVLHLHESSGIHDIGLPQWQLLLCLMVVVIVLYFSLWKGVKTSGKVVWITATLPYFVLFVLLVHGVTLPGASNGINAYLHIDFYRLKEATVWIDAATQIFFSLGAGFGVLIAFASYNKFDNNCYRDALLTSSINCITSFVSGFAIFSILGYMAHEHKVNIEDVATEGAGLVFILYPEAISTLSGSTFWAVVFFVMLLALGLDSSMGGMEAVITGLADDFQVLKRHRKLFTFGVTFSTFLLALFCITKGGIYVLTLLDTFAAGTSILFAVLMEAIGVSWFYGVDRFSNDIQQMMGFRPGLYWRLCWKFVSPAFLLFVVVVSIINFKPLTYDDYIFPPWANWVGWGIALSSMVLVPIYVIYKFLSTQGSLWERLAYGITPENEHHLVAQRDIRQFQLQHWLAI

[47] = Acute toxicity in C57BL/6 mouse xenografted with mouse B16F10 cells assessed as injury to spleen at 30 mg/kg, ip administered once daily for 2 weeks with 2 days rest after day 5 and measured after 15 days by hematoxylin and eosin staining-based assay; format: organism-based; conditions: in vivo, 360 h
[48] = Acute toxicity in nude mouse xenografted with human A375 cells assessed as injury to spleen at 30 mg/kg, ip administered once daily for 14 days by hematoxylin and eosin staining-based assay; format: organism-based; conditions: in vivo, 336 h

## COc1cc(C(=O)c2c[nH]c(-c3cccc4[nH]ccc34)n2)cc(OC)c1OC
[1]
  half-life: 5.26 h
[2]
  inhibition in vivo at 30 mg/kg: 90.6%
[3]
  Activity: 80.9%
[4]
  Activity: Non-Toxic
[5]
  Activity: Non-Toxic
[6]
  IC50: 89.9 nM
[7]
  Activity: Non-Toxic
[8]
  Activity: Non-Toxic
[9]
  Activity: Non-Toxic
[10]
  inhibition in vivo at 30 mg/kg: 83.8%
[11]
  Activity: 70.1%
[12]
  Activity: Non-Toxic
[13]
  Activity: Non-Toxic
[14]
  MTD: ≤ 65 mg/kg
[15]
  half-life: 6.72 h
[16]
  CLint scaled: 3.1 mL/min/kg
[17]
  Activity: Non-Toxic
[18]
  Activity: 67.3%
[19]
  IC50: 66.9 nM
[20]
  Activity: Non-Toxic
[21]
  IC50: 1.6 nM
[22]
  Activity: 38.5%
[23]
  Activity: 35%
[24]
  Ratio IC50: 2.2
[25]
  Activity: 38.5%
[26]
  Activity: Non-Toxic
[27]
  IC50: 3.6 nM
[28]
  Activity: Non-Toxic
[29]
  inhibition in vivo at 15 mg/kg: 82.3%
[30]
  IC50: 169 nM
[31]
  IC50: 379 nM
[32]
  inhibition: Active
[33]
  CLint scaled: 8.9 mL/min/kg
[34]
  Activity: Non-Toxic
[35]
  inhibition at 0.005 µM: 35.6%
[36]
  Activity: Active
[37]
  IC50: 3.7 nM
[38]
  Ratio IC50: 0.7
[39]
  Activity: Active
[40]
  Activity: Non-Toxic
[41]
  Activity: Active
[42]
  half-life: 5.04 h
[43]
  Activity: Non-Toxic
[44]
  Activity: 62.8%
[45]
  CLint scaled: 11.3 mL/min/kg
[46]
  Activity: Active
[47]
  Activity: Non-Toxic
[48]
  Activity: Non-Toxic
